Here are results for eight molecules from ChEMBL document CHEMBL1201862, “PubChem BioAssay data set” (2004).

Experiment [1] concerns the target T1, Disintegrin and metalloproteinase domain-containing protein 17 (Homo sapiens, UniProt P78536). Put plainly: exosite inhibitors of ADAM17, dose response, biochemical (AID 743260).
Experiment [2] has as its target T2, Calpain-2 catalytic subunit (Sus scrofa, UniProt P43367).
T2 sequence (P43367 whole entry): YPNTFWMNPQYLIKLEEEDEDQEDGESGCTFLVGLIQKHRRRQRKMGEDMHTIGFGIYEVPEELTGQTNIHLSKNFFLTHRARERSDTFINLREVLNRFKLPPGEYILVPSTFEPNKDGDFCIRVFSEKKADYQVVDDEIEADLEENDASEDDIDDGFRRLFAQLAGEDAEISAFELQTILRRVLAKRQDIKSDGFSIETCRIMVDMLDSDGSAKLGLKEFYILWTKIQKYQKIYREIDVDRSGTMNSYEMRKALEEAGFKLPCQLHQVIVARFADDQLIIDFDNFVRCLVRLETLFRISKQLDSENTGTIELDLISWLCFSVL
Put plainly: m-calpain protease blockers, concentration series – biochemical, fluorogenic peptide substrate, dose response (AID 1420). The format is functional.

Experiment [3] in a line: inhibition of ADAM10 peptide cleavage – biochemical, FRET peptide substrate, recombinant human ADAM10, selectivity assay for ADAM17 exosite inhibitor project, dose response (AID 743259).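 Also: ADAM10 enzyme cleaving a FRET peptide substrate.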
The next experiment addresses Caspase-6 (Homo sapiens, UniProt P55212). Put plainly: inhibition of CASP6 peptide cleavage – biochemical, VEID-R110 fluorescence, cherry-pick, dose response (AID 720632).
A short description of experiment [4]: Late stage counterscreen for inhibitors of Trypanosoma brucei methionyl tRNA synthetase (MetRS): Luminescence-based cell-based high throughput dose response assay to identify compounds that are cytotoxic to Jurkat human T lymphocyte cells. In kind it is functional. In general terms: The purpose of a counterscreen is to sort out artefacts and off-target activity.

The nature of experiment [5]: Counterscreen for inhibitors of Trypanosoma brucei methionyl tRNA synthetase (MetRS): Luminescence-based cell-based high throughput dose response assay to identify compounds that are cytotoxic to Jurkat human T lymphocyte cells. In kind it is functional.
The target in experiment [6] is T3, Methionyl-tRNA synthetase, putative (Trypanosoma brucei brucei, UniProt Q38C91).
T3 sequence (Q38C91 whole entry): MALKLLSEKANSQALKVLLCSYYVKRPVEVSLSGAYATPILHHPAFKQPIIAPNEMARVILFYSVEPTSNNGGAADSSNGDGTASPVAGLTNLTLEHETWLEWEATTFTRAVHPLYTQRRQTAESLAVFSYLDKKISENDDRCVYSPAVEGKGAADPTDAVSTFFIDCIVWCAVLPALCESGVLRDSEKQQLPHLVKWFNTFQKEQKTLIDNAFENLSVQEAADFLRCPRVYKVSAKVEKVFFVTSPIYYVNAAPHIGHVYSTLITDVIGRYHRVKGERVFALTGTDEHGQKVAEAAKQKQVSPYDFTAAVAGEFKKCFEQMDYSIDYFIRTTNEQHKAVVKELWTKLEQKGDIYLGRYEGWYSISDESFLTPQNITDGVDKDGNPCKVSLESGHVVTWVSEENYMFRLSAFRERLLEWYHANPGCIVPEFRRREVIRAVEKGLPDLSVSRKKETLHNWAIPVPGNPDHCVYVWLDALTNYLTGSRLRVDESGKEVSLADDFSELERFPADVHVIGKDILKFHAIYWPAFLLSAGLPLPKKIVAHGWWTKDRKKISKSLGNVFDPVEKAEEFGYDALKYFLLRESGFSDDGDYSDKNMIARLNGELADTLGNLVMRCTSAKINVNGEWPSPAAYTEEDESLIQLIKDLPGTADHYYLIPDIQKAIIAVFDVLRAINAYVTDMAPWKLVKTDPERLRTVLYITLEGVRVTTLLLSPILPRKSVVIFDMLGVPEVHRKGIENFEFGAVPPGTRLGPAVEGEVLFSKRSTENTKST
In kind it is functional, Trypanosoma brucei brucei strain 927/4 GUTat10.1.

For experiment [7], the target named is T3, Methionyl-tRNA synthetase, putative. The format is functional, Trypanosoma brucei brucei strain 927/4 GUTat10.1. This is another data set of the same source.
Experiment [8] can be described thus: Luminescence Cell-Based Dose Response HTS to Identify Activators of Luciferase Translation or Activity in H4 […] Cells. [Related pubchem assays: 1829 (Project Summary), 1814 (Primary HTS)]. The format is functional.
Experiment [9] in a line: non-specific 3'UTR reporter inhibition in Clone20-Shn3RL – cell-based, Renilla luciferase, cherry-picked, counter-screen for Shn3 inhibitor project, dose response (AID 624133). The format is functional.
The nature of experiment [10]: reduction of Shn3 3'UTR-driven luciferase in osteoblasts – cell-based, Clone20 osteoblasts, firefly luciferase, cherry-picked, dose response (AID 624132).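 Also: firefly luciferase luminescence from reporter carrying the Shn3 3'UTR in osteoblasts.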 In kind it is functional.
Experiment [11] can be described thus: loss of viability in HepG2 cells – cell-based, CellTiter-Glo, cherry-picked, cytotoxicity control for Shn3 inhibitor project, dose response (AID 624134). The format is functional.
Another experiment concerns H4. Briefly: Luminescence Cell-Based Dose Response HTS to Identify Activators of 5'UTR Stem-Loop Driven Prion Protein mRNA Translation in H4 Neuroglioblastoma Cells. [Related pubchem assays: 1829 (Project Summary), 1814 (Primary HTS)]. The format is functional. Conditions: Homo sapiens.
The target in experiment [12] is Matrix metalloproteinase-14 (Homo sapiens, UniProt P50281). Put plainly: Dose Response confirmation of uHTS hits for a small molecule inhibitors of MT1-MMP activation in a fluorescence assay set 2. The format is functional.
Experiment [13] in a line: Luminescence Cell-Based Dose Confirmation HTS to Identify Activators of 5'UTR Stem-Loop Driven Alpha-Synuclein mRNA Translation in H4 Neuroglioblastoma Cells. [Related pubchem assays: 1829 (Project Summary), 1814 (Primary HTS)]. In kind it is functional.
A short description of experiment [14]: general mammalian cell viability loss – activator set, cherry-pick, cytotoxicity control for miR-122 modulator project, dose response (AID 720690).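 Also: HEK293T human cells scored for general mammalian cytotoxicity.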 In kind it is functional, cell-based.
The nature of experiment [15]: activation of miR-122 Renilla sensor silencing – cell-based, Huh7 psiCHECK-miR122, Renilla luciferase, cherry-picked, dose response (AID 651956).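 Also: huh7 hepatoma cells stably carrying a psiCHECK-2 miR-122 sensor plasmid; renilla luciferase signal reporting endogenous miR-122 activity after 48 h compound exposure.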 The format is functional.
A short description of experiment [16]: general mammalian cell viability loss – inhibitor set, cherry-pick, set 2, cytotoxicity control for miR-122 modulator project, dose response (AID 720697). In kind it is functional, cell-based.
Experiment [17] in a line: potency of ADAM10 substrate cleavage blockers – biochemical, QFRET, dose response (AID 743254).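 Also: ADAM10 enzyme with the DM2 quenched FRET peptide as substrate; EDANS fluorescence gain as the protease cuts the substrate; inhibitor potency against ADAM10 proteolytic activity.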
The target in experiment [18] is T1, Disintegrin and metalloproteinase domain-containing protein 17. Put plainly: inhibition of ADAM17 substrate cleavage – biochemical, quenched FRET substrate, counter-screen for ADAM10 exosite inhibitor project, dose response (AID 743253).
For another experiment, the target named is fMet-Leu-Phe receptor (Homo sapiens, UniProt P21462). Put plainly: formyl peptide receptor binders – dose response (AID 519). The format is functional.
fMet-Leu-Phe receptor, sequence (P21462 whole entry): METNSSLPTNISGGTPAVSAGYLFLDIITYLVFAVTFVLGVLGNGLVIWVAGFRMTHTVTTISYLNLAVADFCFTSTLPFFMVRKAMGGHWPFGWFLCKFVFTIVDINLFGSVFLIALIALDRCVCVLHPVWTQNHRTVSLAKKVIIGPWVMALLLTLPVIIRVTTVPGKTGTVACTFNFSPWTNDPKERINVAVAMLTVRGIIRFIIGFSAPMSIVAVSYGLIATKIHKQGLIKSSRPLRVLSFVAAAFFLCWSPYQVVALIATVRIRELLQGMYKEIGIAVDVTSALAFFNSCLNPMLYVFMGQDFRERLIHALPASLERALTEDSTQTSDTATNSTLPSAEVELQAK
For another experiment, the target named is Beta Lactamase (Pseudomonas aeruginosa, UniProt Q932Y6). Briefly: BLA reporter interference, concentration series – BLA reporter cells, FRET fluorescence, artefact control for TLR9-MyD88 binding inhibitor project, dose response (AID 588341).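 Also: cell based assay in CHO-K1 cells stably expressing beta-lactamase.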 The format is cell-based.
Beta Lactamase, sequence (Q932Y6 whole entry, the tested form may be a part): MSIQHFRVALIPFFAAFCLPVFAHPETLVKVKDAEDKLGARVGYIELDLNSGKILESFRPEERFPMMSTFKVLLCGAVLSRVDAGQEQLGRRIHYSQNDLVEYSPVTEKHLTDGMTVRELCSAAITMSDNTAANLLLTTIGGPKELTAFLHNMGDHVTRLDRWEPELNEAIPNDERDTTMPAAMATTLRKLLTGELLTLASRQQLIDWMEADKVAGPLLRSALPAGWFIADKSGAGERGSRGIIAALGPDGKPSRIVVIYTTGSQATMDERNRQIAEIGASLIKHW
Another experiment concerns CHO. Briefly: CHO cell viability loss, potency – luminescence, cytotoxicity control for TLR9-MyD88 binding inhibitor project, dose response (AID 588339).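 Also: CHO cells stably coexpressing TLR9 and MyD88 fusions from primary screen; compound exposure lasted 48 hours before viability readout.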 In kind it is functional, cell-based, hamster. The settings on record: Cricetulus griseus.
Experiment [19] deals with T4, Rac GTPase-activating protein 1 (Homo sapiens, UniProt Q9H0H5).
T4 sequence (Q9H0H5 whole entry): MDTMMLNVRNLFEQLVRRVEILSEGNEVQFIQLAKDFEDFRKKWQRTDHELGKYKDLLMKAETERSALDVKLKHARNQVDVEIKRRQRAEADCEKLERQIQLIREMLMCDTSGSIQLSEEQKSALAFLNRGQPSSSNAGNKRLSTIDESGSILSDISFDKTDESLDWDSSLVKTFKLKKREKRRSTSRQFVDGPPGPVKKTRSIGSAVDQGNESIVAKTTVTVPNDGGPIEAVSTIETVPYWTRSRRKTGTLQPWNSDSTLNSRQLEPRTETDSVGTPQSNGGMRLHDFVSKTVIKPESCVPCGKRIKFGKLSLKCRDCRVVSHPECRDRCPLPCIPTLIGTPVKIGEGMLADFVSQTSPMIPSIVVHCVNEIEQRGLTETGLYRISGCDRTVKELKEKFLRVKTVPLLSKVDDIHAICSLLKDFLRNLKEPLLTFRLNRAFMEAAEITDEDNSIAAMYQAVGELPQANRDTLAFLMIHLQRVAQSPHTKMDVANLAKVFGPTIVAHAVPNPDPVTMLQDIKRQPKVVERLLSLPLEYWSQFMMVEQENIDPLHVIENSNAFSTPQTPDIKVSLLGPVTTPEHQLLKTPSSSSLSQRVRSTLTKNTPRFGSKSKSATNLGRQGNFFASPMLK
Put plainly: blockers of MgcRacGAP-driven Rac1 GTP hydrolysis – biochemical, ADP Hunter fluorescence, primary and confirmatory, confirmation (AID 624330). The format is functional.

Experiment [20] in a line: viability loss in HeLa cells – cytotoxicity control for MgcRacGAP inhibitor project, dose response (AID 624300). The format is functional.
Experiment [21] can be described thus: reduced cellular PGC1a acetyl-lysine signal – cell-based, cherry-picked samples, dose response (AID 720514).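 Also: potency may reflect raised or lowered acetylation signal.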 In kind it is functional.
Experiment [22] is described as follows: Late stage assay provider counterscreen for TLR9 inhibitors: absorbance-based cell-based MTT cytotoxicity assay. The format is functional.

Calls of active or inactive are those of the source. Bounds are passed on as bounds.

T1 sequence (P78536 whole entry, the tested form may be a part): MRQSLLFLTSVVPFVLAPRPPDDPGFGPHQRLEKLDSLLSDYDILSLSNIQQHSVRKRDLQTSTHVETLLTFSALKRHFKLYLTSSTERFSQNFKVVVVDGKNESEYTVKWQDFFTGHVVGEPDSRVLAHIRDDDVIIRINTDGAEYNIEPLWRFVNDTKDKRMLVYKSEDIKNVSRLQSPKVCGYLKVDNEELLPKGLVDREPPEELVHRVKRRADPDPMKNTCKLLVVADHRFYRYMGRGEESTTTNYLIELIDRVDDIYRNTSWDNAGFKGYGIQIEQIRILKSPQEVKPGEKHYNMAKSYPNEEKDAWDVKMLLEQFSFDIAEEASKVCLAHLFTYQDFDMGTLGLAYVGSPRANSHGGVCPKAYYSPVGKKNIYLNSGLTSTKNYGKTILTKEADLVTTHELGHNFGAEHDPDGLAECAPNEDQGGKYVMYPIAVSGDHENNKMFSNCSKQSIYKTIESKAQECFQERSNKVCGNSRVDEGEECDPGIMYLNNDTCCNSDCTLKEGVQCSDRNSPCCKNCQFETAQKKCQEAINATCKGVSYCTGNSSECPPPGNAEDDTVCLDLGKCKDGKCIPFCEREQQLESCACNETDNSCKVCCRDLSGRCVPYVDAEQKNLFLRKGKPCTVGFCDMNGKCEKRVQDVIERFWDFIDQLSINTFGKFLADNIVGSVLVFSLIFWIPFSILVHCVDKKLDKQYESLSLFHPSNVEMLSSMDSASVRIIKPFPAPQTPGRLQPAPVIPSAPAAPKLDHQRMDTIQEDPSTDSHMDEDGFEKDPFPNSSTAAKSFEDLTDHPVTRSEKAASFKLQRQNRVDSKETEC
Caspase-6, sequence (P55212 24-179 limits assumed): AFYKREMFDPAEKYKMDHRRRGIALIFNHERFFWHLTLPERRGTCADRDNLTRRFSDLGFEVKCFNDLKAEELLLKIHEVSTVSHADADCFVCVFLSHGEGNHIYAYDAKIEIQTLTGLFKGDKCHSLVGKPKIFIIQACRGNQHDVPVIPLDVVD
Caspase-6, sequence (P55212 194-293 limits assumed): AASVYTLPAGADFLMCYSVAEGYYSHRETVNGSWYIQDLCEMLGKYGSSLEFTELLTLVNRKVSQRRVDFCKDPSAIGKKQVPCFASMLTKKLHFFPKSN

A word on the IC50: it is the midpoint of a concentration-inhibition curve. With `Nc1cc(S(=O)(=O)N2CCCCC2)ccc1Oc1ccc(Cl)cc1`, the figures for the IC50 in experiment [1], in experiment [2] and in experiment [3] were > 69.5 µM (inactive), 5.69 µM (not active) and > 69.5 µM (inactive), respectively.

The AC50 is the midpoint of the concentration-response curve, whichever way the signal moves. With `O=C(Nc1sc2c(c1C(=O)O)CCC2)C(=O)N1CCOCC1`, the AC50 on Caspase-6 was 30.7 µM (active).

On to `CC(C)OCCCN1CC(=O)N2C(c3cccc([N+](=O)[O-])c3)c3[nH]c4ccccc4c3C[C@H]2C1=O` (some centres not stated), for which the IC50 in [4] is > 83.3 µM (inactive); in experiment [5], 73.1 µM (inactive); in [6], 0.979 µM (active); in [7] it was 2.17 µM (active).

By EC50 is commonly meant the concentration that produces a half-maximal response. Higher therefore signals a need for much substance. On to `CC[n+]1c(/C=C/Nc2ccccc2)sc2ccccc21`, for which the EC50 (in experiment [8]; in the experiment on H4; in [13]) was > 120 µM (not active) throughout. The half-maximal activity concentration (AC50) in experiment [9] was 5.83 µM (active); in [10], 2.06 µM (active); in [11], > 70 µM (inactive). Further, the IC50 in experiment [12] was 23.3 µM (inactive).

As to `COc1ccc(OC)c(-c2cc(C3CCN(c4cc(Cl)nc(N)n4)CC3)[nH]n2)c1`, the AC50 in experiment [14] was 16.7 µM (active); in [15], 42.9 µM (active); in experiment [16], 18.1 µM (active).

As to `Cc1cccc([C@@H]2[C@@H]3C(=O)N(Cc4ccccc4)C(=O)[C@@H]3[C@]3(Cc4ccccc4)C(=O)N(c4ccc(C(F)(F)F)cc4)C(=O)N23)c1`, the IC50 in experiment [17] and in [18] was > 69.6 µM (inactive) each time.

In general, Ki refers to the dissociation constant of the complex between target and ligand, obtained from inhibition or displacement. Consider `COc1ccc2c(=O)c(-c3cnn(-c4ccccc4)c3)c(C)oc2c1`, for which, at fMet-Leu-Phe receptor, the Ki is > 66.7 µM (inactive).

By CC50 is commonly meant the concentration that lowers cell viability or growth by half. Turning to `O=C1C=CC2(C=C1)O[C@H](Cc1ccccc1)[C@@H](Cc1ccccc1)O2`, the figures for the IC50 (at Beta Lactamase; with CHO; in experiment [19]) were 21.8 µM (inactive), 0.57 µM (active) and 49.6 µM (active), respectively. Moreover, the CC50 in experiment [20] was 46.5 µM (active); in experiment [22], 0.88 µM (active). In addition, in experiment [21], the AC50 is 1.05 µM (active).
